Laboratory results reported in paper PMC8151848, “Tambjamines and Prodiginines: Biocidal Activity against Trypanosoma cruzi” (Pharmaceutics, 2021).
Entries after “also recorded” stand apart in the source; their conditions may differ. Where two headings read alike, the source gives them in different places.

Experiments:
[1] = tested on: epimastigotes of T. cruzi (CL strain, clone B5); test: Epimastigote susceptibility assay (monotherapy); assay type: cell-based, Trypanosoma cruzi
Protocol: The CL-B5 strain was stably transfected with the Escherichia coli β-galactosidase gene (lacZ) and routinely maintained in exponential growth by weekly passages. Trypomastigotes of the CL-B5 strain were obtained as previously reported.
The screening assays were performed in 96-well microplates (WWR Int LLC) containing serially diluted concentrations of each compound and seeded with 2.5 × 10^5 epimastigotes/mL harvested during the exponential growth phase. Growth, medium, and drug blanks were used in each assay as controls. An internal control of the reference drug, benznidazole, was also included. After 72 h at 28 °C, 50 µL of the substrate chlorophenol red-β-D-galactopyranoside (CPRG; Roche) diluted in 0.9% Triton X-100 solution (EMD, Darmstadt, Germany) were added at a final concentration of 200 µM. Then, after 3 h at 37 °C, measurements were performed in a scanning multiwell spectrophotometer (ELISA Multiskan Reader, BioTek Instruments, Inc., Winooski, VT, USA) at 595 nm. Each concentration was tested in triplicate and the experiments were performed three times independently. The efficacy of the compounds was calculated by determining the percentage of epimastigote growth (% EG value) as follows:(1) % Epimastigote growth=(AE−AEB)/(AC−ACB)×100 where AE is the absorbance of the experimental group, AEB the absorbance of the drug blank, AC the absorbance of the control group, and ACB the absorbance of the culture medium blank. The IC50 values (the drug concentration that eliminates 50% of the parasites) were determined for each compound using the GraphPad Prism software (Version 5.0.0 for Windows, GraphPad Software, San Diego, CA, USA).

[2] = tested on: murine L-929 fibroblasts (NCTC clone 929); test: Cytotoxicity assay (resazurin) in L-929 fibroblasts; assay type: cell-based, mouse
Text: (§1) Mouse L-929 fibroblasts (NCTC clone 929, ECACC 88102702) were used for both drug toxicity and infection assays. Cell line was obtained from Dr. Concepció Soler, Dept. Pathology & Experimental therapeutics, Faculty of Medicine and Health Sciences, University of Barcelona, Spain. Human hepatocarcinoma Hep G2 cells (American Type Culture Collection (ATCC HB-8065)) were employed only in the drug toxicity assays and were obtained from Dr. Neus Agell, Cell Biology Research Group, Faculty of Medicine and Health Sciences, University of Barcelona, Spain.
(§2) Cells were seeded by trypsinization in 96-well microplates (L-929: 4 × 10^3 cells/well; Hep G2: 1.5 × 10^4 cells/well) and incubated for 24 h at 37 °C to allow cell attachment. On the following day, the medium was discarded and replaced with a fresh medium containing the different concentrations of the drugs. Hep G2 cells were treated with concentrations of 100, 10, and 1 µM of the different drugs, while L-929 cells were treated with a wider range of concentrations in order to calculate the IC50 value (the drug concentration that inhibits 50% of cell growth). Medium, growth, and drug blanks were used in each test as controls. Plates were incubated again for another 24 h. After treatment, 20 µL of resazurin diluted in 1X phosphate-buffered saline (PBS; Sigma Aldrich) was added at a final concentration of 70 µM. The plates were incubated for another 24 h, after which fluorescence was measured in a microplate reader (FLUOstar OPTIMA, BMG LABTECH GmbH, Ortenberg, Germany) at an excitation wavelength of 530 nm and an emission wavelength of 590 nm. Each concentration was tested in triplicate and the experiments were repeated three times independently. Results indicated the percentage of toxicity (% T value). (3) % Toxicity=100−(AE−AEB)/(AC−ACB)×100 where AE is the absorbance of the experimental group, AEB the absorbance of the drug blank, AC the absorbance of the untreated cells, and ACB the absorbance of the culture medium blank. For the L-929 fibroblasts, the IC50 values (the drug concentration that inhibits 50% of cell growth) were calculated for each compound using the GraphPad Prism software.

[3] = as above; assay type: cell-based, mouse; conditions: mouse, L-929, 16 µM, n = 9, read-out: % Cytotoxicity ± SD
Text: as §1, §2

[4] = tested on: human hepatocarcinoma cells (Hep G2); test: Cytotoxicity assay (resazurin) in Hep G2 cells; assay type: cell-based; conditions: for Cytotoxicity (% cell growth inhibition) at 1 µM ± SD: Hep G2, 1 µM
Text: as §1
as §2, with “Hep G2 cells were treated with concentrations of 100, 10, and 1 µM of the different drugs, while L-929 cells were treated with a wider range of concentrations in order to calculate the IC50 value (the drug concentration that inhibits 50% of cell growth).” left out, “For the L-929 fibroblasts, the IC50 values (the drug concentration that inhibits 50% of cell growth) were calculated for each compound using the GraphPad Prism software.” left out

[5] = tested on: intact epimastigotes of T. cruzi; test: Oxygen consumption inhibition analysis (high-resolution respirometry); assay type: cell-based, Trypanosoma cruzi; conditions: for % Oxygen Uptake Inhibition (¾ IC50): compound at ¾ IC50; for effect on respiratory inhibition (in words): ½ and ¾ IC50
Protocol: Intact epimastigotes were collected by centrifugation, washed twice in PBS, and resuspended with respiration buffer containing 125 mM sucrose, 65 mM KCL, 10 mM Tris-HCl (pH 7.2), 1 mM […], and 2.5 mM K2PO4. They were then added to a final concentration of 25 × 10^6 cells/mL.
To evaluate the effect of the different drugs on mitochondrial function, we measured mitochondrial respiration in the cells before and after the addition of increasing volumes of the compounds. Each compound was added in titrations until reaching concentrations of ½ and ¾ IC50. Finally, antimycin A (AA) was added to determine the residual oxygen consumption (ROX) through the inhibition of complex III of the electron transport chain. The ROX value was subtracted from the O2 flux as a baseline for all the respiratory states.
Mitochondrial respiration was measured by high-resolution respirometry (OROBOROS Oxygraph-2k; OROBOROS Instruments, Innsbruck, Austria). Data were analyzed by using the Software DatLab Online Data Acquisition and Analysis (OROBOROS Instruments, Innsbruck, Austria). All respirometry assays were performed at a constant temperature of 28 °C, with the volume of each chamber being 2 mL. The oxygen flux values are expressed relative to the cell concentration per second (pmol/sec/10^6 cells). The effect of each compound on mitochondrial function is shown as the percentage of inhibition of oxygen flux.

[6] = IC50 for L-929 fibroblasts / IC50 for T. cruzi epimastigotes
[7] = Trypanosoma cruzi, CLB strain, 72 h at 28 °C, mean ± SD, read-out: IC50 (µM) in epimastigotes of T. cruzi
[8] = Mus musculus, L929, read-out: IC50 (µM) L-929 cell growth inhibition
[9] = L-929 fibroblasts (NCTC clone 929)
[10] = Homo sapiens, HepG2, read-out: IC50 (µM) Hep G2 cell growth inhibition

Row | Compound | Selectivity index (SI), Epimastigotes [1, 6] | IC50 [1, 7] [µM] | IC50 [2, 8] [µM] | cytotoxicity at 24 h, 16 µM [3, 9] [%] | IC50 [4, 10] [µM] | % Oxygen Uptake Inhibition (½ IC50) ([5]; compound at ½ IC50) [%] | Oxygen Uptake (pmol/sec/Million Cells) ([5]; compound at ½ IC50, n = 4) | % Oxygen Uptake Inhibition (¾ IC50) [5] [%] | Oxygen Uptake (pmol/sec/Million Cells) ([5]; compound at ¾ IC50, n = 4) | effect on respiratory inhibition (in words) [5] | Cytotoxicity (% cell growth inhibition) at 1 µM ± SD ([4]; n = 9) [%] | also measured
1 | O=C(Cn1ccnc1[N+](=O)[O-])NCc1ccccc1 [Benznidazole, reference compound] | 72.37 | 19 ± 7.07 | 1372.3 ± 0.5 | 0 | > 100 | – | – | – | – | – | – | –
2 | CCc1c(-c2ccc[nH]2)[nH]c(/C=N/C2CCCCC2)c1C [MM3] | 2.70 | 4.52 ± 1.43 | 12.2 ± 0.28 | 88.4 ± 2.75 | 46 ± 8.15 | 41.26 | 1.58 ± 0.05 | 42 | 1.56 ± 0.06 | – | – | –
3 | CCc1c(-c2ccc[nH]2)[nH]c(/C=N/c2ccc(C(C)(C)C)cc2)c1C [MM4] | 2.76 | 5.08 ± 0.62 | 14 ± 1.28 | 64.2 ± 10.5 | 52.5 ± 9.21 | 2.60 | 2.62 ± 0.04 | 2.97 | 2.61 ± 0.04 | little or no effect; also recorded: no inhibitory effect | – | –
4 | CCCCCC1=C/C(=C/c2[nH]c(-c3ccc[nH]3)cc2OC)N=C1C [Natural prodigiosin, prodigiosin] | 9.25 | – | – | – | – | 72.8 | 0.73 ± 0.06 | – | – | – | 2.29 ± 3.97 | IC50 ([1]; read-out: IC50 (µM) in epimastigotes of T. cruzi, CLB strain, 72 h at 28 °C, mean ± SD): 0.54 ± 0.25 µM; IC50 ([2]; Mus musculus, L929, read-out: IC50 (µM) L-929 cell growth inhibition, L-929): 5 ± 0.83 µM; cytotoxicity at 24 h, 16 µM [3]: 95.8 ± 0.09%; Cytotoxicity (% cell growth inhibition) at 10 µM ± SD ([4]; Hep G2, 10 µM, n = 9, 10 µM): 87.97 ± 5.94%; IC50 ([4]; read-out: IC50 (µM) Hep G2 cell growth inhibition, Hep G2): 6.02 ± 0.5 µM; % Oxygen Uptake Inhibition (½ IC50) ([5]; compound at ½ IC50, listed as natural prodigiosin): 73%
5 | COC1=CC(c2cc3ccccc3[nH]2)=N/C1=C\c1[nH]c(C)cc1C [Obatoclax, reference compound] | – | 3.46 ± 0.96 | 5.83 ± 1.07 | 63.5 ± 1.63 | 8.18 ± 1.87 | 0 | 2.69 ± 0 | 0 | 2.69 ± 0 | little or no effect | – | Selectivity index (SI), Epimastigotes [1]: 1.68
6 | CCCCCC1=C/C(=C/c2[nH]c(-c3ccc[nH]3)cc2OC)N=C1C [Synthetic prodigiosin, prodigiosin] | 6.65 | – | – | – | – | 13.58 | 2.33 ± 0.09 | 35.18 | 1.74 ± 0.17 | – | 15 ± 6.12 | IC50 ([1]; Trypanosoma cruzi, 72 h, read-out: IC50 (µM) in epimastigotes of T. cruzi, CLB strain, 72 h at 28 °C, mean ± SD): 0.46 ± 0.03 µM; % Cytotoxicity ± SD ([2]; L-929, 16 µM, n = 9, 16 µM): 95.75 ± 0.06%; IC50 ([2]; read-out: IC50 (µM) L-929 cell growth inhibition, L-929): 3.06 ± 0.01 µM; IC50 ([4]; Homo sapiens, HepG2, read-out: IC50 (µM) Hep G2 cell growth inhibition, Hep G2): 5.15 ± 0.39 µM
